Assay results reported in patent US20180207228A1, “PEPTIDE COMBINATIONS AND USES THEREOF FOR TREATING GRASS ALLERGY” (ALK-Abelló A/S, priority 2015, published 2018).
Where no end group is shown, it is not given here.

What was measured:
Format in all cases: cell-based, human
[1] = system: allergen specific T cells; test: T cell proliferation assay (72 h) on donor derived T cell lines (TCL02/TCL03); conditions: for Proliferation % donor coverage (TCL-02 DK1): T cell lines TCL-02 DK1, 30 donors, hit criteria SI>=2, CPM>=1000; for Proliferation strength (TCL-02 DK1): T cell lines TCL-02 DK1, strength of response (average relative magnitude)
Text: Isolated PBMCs (peripheral blood mononuclear cells) obtained from the donors described in Example 2 were CD8 depleted and the T cell lines were established by stimulating the cultures with nPhl p1, mix of nPhl p 2 and […] 5 and […] established for each of the donors tested by stimulating with the mixture of above listed allergens. Grass allergic donors were recruited (cohort DK1 including 30 grass allergic individuals, DK2 including 24 grass allergic individuals and US1 including 15 grass allergic individuals). PBMCs were isolated from freshly drawn heparinized blood by gradient centrifugation on lymphoprep (Nycomed, Norway), washed twice and re-suspended in RPMI 1640 medium with HEPES and ultraglutamine (Cambrex, Belgium) supplemented with 5% v/v human AB-serum (Cambrex, Belgium), 100 units/ml penicillin, and 0.1 mg/ml streptomycin (Sigma, St Louis, USA) (referred to as 5% AB-medium). Aliquots of the isolated PBMCs were frozen and were thawed later to stimulate the T cell lines. Additionally either fresh or thawed PBMCs were used as antigen presenting cells (APCs) in the proliferation assay as described later. In some cases the PBMCs were freezed at this stage and thawed later on to continue the experiment as described in the following. The isolated PBMCs (fresh or thawed) were CD8 depleted by MACS magnetic depletion according to the manufacturer's instructions (Miltenyi Biotec, Bergisch Gladbach, Germany). On day 0 the CD8-depleted PBMCs (2×10^6/ml) were stimulated in 1 ml bulk cultures in AB medium in 24 well plates (Nunc, Denmark) with the mixture of natural allergens: nPhl p 1 (0.5 μg/ml), mix of […]). […] On day 14 cells were harvested to obtain T cell line generation 01 (referred to as TCL01). Restimulation of T cell lines were performed in AB-medium with the thawed autologous PBMCs (10^6/well, irradiated 2500 Rad), the above mixture of natural allergens (concentration as mentioned above), and PHA-P (0.5 μg/ml, Difco, Detroit, Mich., USA). rIL-2 was added at day 17, 18 and 19. On day 24 cells were harvested to obtain T cell line generation 02 (referred as TCL02). T cells were isolated, washed, counted and used for T cell proliferation assay as described later. Remaining cells were frozen for later thawing and re-stimulations. The T cell line generation 2 (TCL02) were thawed and were re-stimulated with allogeneic Epstein Bar Virus transformed lymphoblastoid cell lines (EBV) B cells (JY cells, 10^5/well, irradiated 3500 Rad), allogeneic PBMCs (10^6/well, irradiated 2500 Rad), and 0.5 μg/ml PHA-P and subsequent addition of rIL-2 at days 3-5 to generate T cell line generation 03 (referred to as TCL03). […] To summarize ELISpot experiments were carried out at day 14 (with TCL01) and proliferation assay on either day 24 (with TCL02) or at day 34 (with TCL03). […] To ensure that all T cell epitopes regions from the major and intermediate grass allergens of the grass were identified T cell screening was carried out with either overlapping peptides or selected peptides. […] These were overlapping 20-mer peptides spanning the entire full length amino acid sequence of […] and selected high binder peptides from Phl p 4 were tested. Additionally 21, 15 mer peptides were tested which were derived from various group 1 and 5 allergens. Also, 67 peptides from homologous grass allergens were tested. Finally some reference peptides and mixes thereof were also tested. The 15-mer peptides were selected on the basis of predicted and measured promiscuous HLA binding and of sequence homology between known proteins sequences from the relevant pooideae grasses and the Bermuda grass. […] To get comprehensive data from all the donors the peptides were tested in both Fluorospot/Elispot (day 14, TCL01) and proliferation (day 24, TCL02).

[2] = system: release of IL-5 upon T cell activation; test: Fluorospot assay, IL-5 release (DK1-TCL01, US1-TCL01); conditions: head prints TCL-02 DK1; text: 25 TCL-01 DK1 lines
Method: (§1) Grass allergic donors were recruited (cohort DK1 including 30 grass allergic individuals, DK2 including 24 grass allergic individuals and US1 including 15 grass allergic individuals). PBMCs were isolated from freshly drawn heparinized blood by gradient centrifugation on lymphoprep (Nycomed, Norway), washed twice and re-suspended in RPMI 1640 medium with HEPES and ultraglutamine (Cambrex, Belgium) supplemented with 5% v/v human AB-serum (Cambrex, Belgium), 100 units/ml penicillin, and 0.1 mg/ml streptomycin (Sigma, St Louis, USA) (referred to as 5% AB-medium). Aliquots of the isolated PBMCs were frozen and were thawed later to stimulate the T cell lines. Additionally either fresh or thawed PBMCs were used as antigen presenting cells (APCs) in the proliferation assay as described later. In some cases the PBMCs were freezed at this stage and thawed later on to continue the experiment as described in the following. The isolated PBMCs (fresh or thawed) were CD8 depleted by MACS magnetic depletion according to the manufacturer's instructions (Miltenyi Biotec, Bergisch Gladbach, Germany). On day 0 the CD8-depleted PBMCs (2×10^6/ml) were stimulated in 1 ml bulk cultures in AB medium in 24 well plates (Nunc, Denmark) with the mixture of natural allergens: nPhl p 1 (0.5 μg/ml), mix of nPhl p 2/nPhl p 3 (1.0 μg/ml), nPhl p 4 (0.5 μg/ml), nPhl p 5 (0.5 μg/ml) and nCyn d 1 (0.5 μg/ml). Amount of 65 U, 30 U, and 30 U recombinant IL-2 (Chiron, USA) were added per well at days 5, 6 and 7, respectively. On day 14 cells were harvested to obtain T cell line generation 01 (referred to as TCL01).
(§2) On day 14 the T cells of TCL01 were isolated, washed and counted. The isolated T cells of TCL01 generation were used to perform either ELISpot or Fluorospot assay. TCL01 were further re-stimulated as described in the next paragraph for use in T cell proliferation. The aliquot for use in T cell proliferation was re-stimulated on day 14 to carry out proliferation experiment at day 24.
(§3) In the Fluorospot assays, release of IL-5 and IFN-γ upon T cell activation (of donor derived lines DK1-TCL01, and US1-TCL01) with a peptide or a peptide-mix described herein was measured by Fluorospot assay kit (Mabtech AB) and procedures were followed as per manufacturer's instructions. Briefly anti-human IL-5 and anti-human IFN-γ coated 96 well plates were obtained and blocked with 10% AB serum in RPMI. The plates were washed thoroughly and the isolated T cells were plated and incubated with either single peptides (2 μg/ml) or peptide mixes (2 μg/ml), or allergens nPhl p1, nPhl p 2, nPhl p 3, nPhl p 4, nPhl p 5, Cyn d 1 at 2 μg/ml for 20 hrs/37° C./5% CO2. After the incubation time the cells were removed by emptying the plate. Detection antibodies 7-B6-1-FS-FITC (1:200) and 5A10-biotin (2 μg/ml) were diluted in PBS-0.1% BSA and were added to the plate and incubated for 2 hours/room temperature (RT). There-after the plates were washed and anti-FITC-green (1:200) and SA-Red (1:200) diluted in PBS±0.1% BSA were added and incubated for 1 hour/RT/dark. After the incubation period the plates were washed, emptied and fluorescence enhancer solution was added for 15 minutes/RT. Plates were emptied, fluorescence enhancer solution was firmly tapped out against a clean paper, soft plastic under drain was removed and the plates were left in the dark to dry. The counts were inspected in a fluorospot reader. Hit criteria for peptide were 20 SFCs/10^6 PBMCs, p≤0.05 and poisson 0.05 stimulated cells compared to background, and a stimulation index (SI)≥2.
(§4) The peptides were identified as hits if they fulfilled the criteria as mentioned below where stimulation index (SI) value of 2 or above, Poisson value=<0.05 and P value=<0.05, SFC>=20 (IL-5/IFN-g)/10^6 cells and CPM>=1000 (proliferation) SI can be defined as [[…]/medium control] in a Fluorospot assay and [counts per minute (cpm)/medium control] in a proliferation assay.

[3] = system: release of IFN-γ upon T cell activation; test: Fluorospot assay, IFN-γ release (DK1-TCL01, US1-TCL01); conditions: head prints TCL-02 DK1; 17 TCL-01 DK1 lines
Method: as §1, §2, §3, §4

Row | Compound | Proliferation % donor coverage (TCL-02 DK1) [1] [%] | Proliferation strength (TCL-02 DK1) [1] | IL-5-Fluorospotr % donor coverage (TCL-02 DK1) [2] [%] | IFN-gamma % donor coverage (TCL-02 DK1) [3] [%]
1 | CC[C@H](C)[C@H](NC(=O)[C@@H](NC(=O)[C@H](CCCNC(=N)N)NC(=O)[C@H](CC(C)C)NC(=O)[C@H](C)NC(=O)[C@H](CCC(=O)O)NC(=O)[C@@H](NC(=O)[C@H](CC(C)C)NC(=O)[C@@H](NC(=O)[C@H](C)NC(=O)[C@@H](NC(=O)[C@H](Cc1ccc(O)cc1)NC(=O)[C@H](C)NC(=O)[C@@H](N)CC(=O)O)C(C)C)[C@@H](C)O)[C@@H](C)O)C(C)C)C(=O)N[C@@H](C)C(=O)O [compound 128] | 60.00 | 13.50 | 41.67 | 12.00
2 | CC[C@H](C)[C@H](NC(=O)[C@H](CCC(=O)O)NC(=O)[C@H](Cc1c[nH]c2ccccc12)NC(=O)[C@@H](NC(=O)CNC(=O)[C@@H](N)CC(=O)O)C(C)C)C(=O)N[C@@H](CCCCN)C(=O)N[C@@H](CO)C(=O)N[C@@H](CC(=O)O)C(=O)N[C@@H](CCCCN)C(=O)N1CCC[C@H]1C(=O)N[C@@H](CC(C)C)C(=O)N[C@@H](CCCCN)C(=O)NCC(=O)N1CCC[C@H]1C(=O)O [compound 130] | 10.34 | 1.80 | 12.50 | 4.00
3 | CC[C@H](C)[C@H](NC(=O)[C@@H](N)CC(=O)O)C(=O)N[C@@H](CC(N)=O)C(=O)N[C@H](C(=O)NCC(=O)N[C@@H](Cc1ccccc1)C(=O)N[C@@H](CCCCN)C(=O)N[C@@H](C)C(=O)N[C@@H](C)C(=O)N[C@H](C(=O)N[C@@H](C)C(=O)N[C@@H](C)C(=O)N[C@@H](C)C(=O)N[C@@H](C)C(=O)NCC(=O)O)C(C)C)C(C)C [compound 131] | 55.55 | 6.50 | 22.22 | 0.00
4 | CC(C)[C@H](NC(=O)[C@H](C)NC(=O)[C@H](C)NC(=O)[C@H](CCCCN)NC(=O)[C@@H](N)Cc1ccccc1)C(=O)N[C@@H](C)C(=O)N[C@@H](C)C(=O)N[C@@H](C)C(=O)N[C@@H](C)C(=O)NCC(=O)N[C@@H](C)C(=O)N1CCC[C@H]1C(=O)N1CCC[C@H]1C(=O)N[C@@H](C)C(=O)N[C@@H](CC(=O)O)C(=O)O [compound 133] | 31.03 | 4.70 | 21.74 | 0.00
5 | AAESSSKAALTSKLDAAYKL-OH [compound 78] | 16.67 | 3.00 | 0.00 | 0.00
6 | AAGVPPADKYRTFVATFGAA-OH [compound 75] | 10.00 | 1.10 | 0.00 | 0.00
7 | AEGLSGEPKGAAESSSKAAL-OH [compound 77] | 3.33 | 0.40 | 0.00 | 0.00
8 | AEPAGKATTEEQKLIEKINA-OH [compound 74] | 10.00 | 1.50 | 4.00 | 0.00
9 | AEVELRQHGSEEWEPLTKKG-OH [compound 43] | 3.33 | 0.70 | 4.00 | 0.00
10 | AFGAMAKKGDEQKLRSAGEL-OH [compound 22] | 26.67 | 2.10 | 4.00 | 15.00
11 | AGELELQFRRVKSKYPEGTK-OH [compound 7] | 40.00 | 8.10 | 28.00 | 4.00
